{"source": "patent US11560385B2", "about": "“Proteasome activity enhancing compounds” (Proteostasis Therapeutics, Inc., priority 2018, dated 2023)", "biological_target": "USP14 (Homo sapiens (Human), UniProt P54578)", "sequence (P54578 whole entry, looked up)": "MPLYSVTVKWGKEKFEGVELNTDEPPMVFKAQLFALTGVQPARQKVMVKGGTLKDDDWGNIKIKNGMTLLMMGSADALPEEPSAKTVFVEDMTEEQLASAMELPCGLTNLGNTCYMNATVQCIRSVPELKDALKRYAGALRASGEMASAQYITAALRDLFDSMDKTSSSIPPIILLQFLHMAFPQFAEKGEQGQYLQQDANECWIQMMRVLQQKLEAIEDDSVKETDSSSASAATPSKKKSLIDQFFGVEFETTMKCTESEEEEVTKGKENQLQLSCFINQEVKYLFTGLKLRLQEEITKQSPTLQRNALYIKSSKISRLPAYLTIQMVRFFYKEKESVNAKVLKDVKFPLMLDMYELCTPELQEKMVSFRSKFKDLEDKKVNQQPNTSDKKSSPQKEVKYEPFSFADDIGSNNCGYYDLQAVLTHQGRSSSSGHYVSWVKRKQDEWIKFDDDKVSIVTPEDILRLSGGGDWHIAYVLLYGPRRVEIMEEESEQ", "assay": "Usp14 inhibition assay (Example 57B, B-series compounds)", "assay_type": "biochemical", "conditions": "IC50 class; average value from a minimum of two experimental determinations", "description": "Example 57B: Usp14 Inhibition Assay\nThe IC50 values in the Table below represent the average value from a minimum of two experimental determinations."}
{"compound": "Cc1ncc(-c2cc(C(=O)CN3[C@@H]4CC[C@H]3[C@@H](O)C4)c(C)n2-c2ccc(C#N)cc2)s1", "note": "(racemic) [Example 147B, (±)-4-(3-(2-((1R,2R,4S)-2-Hydroxy-7-azabicyclo[2.2.1]heptan-7-yl)acetyl)-2-methyl-5-(2-methylthiazol-5-yl)-1H-pyrrol-1-yl)benzonitrile]", "values": [{"measurement": "IC50", "result": "50 to 500", "unit": "nM"}]}
{"compound": "Cc1c(C(=O)CN2C3CCC2[C@@H](O)C3)cc(C#CC2COC2)n1-c1ccc(C#N)cc1", "note": "(mixture of isomers) [Example 57B, (±)-4-(3-(2-((2R)-2-Hydroxy-7-azabicyclo[2.2.1]heptan-7-yl)acetyl)-2-methyl-5-(oxetan-3-ylethynyl)-1H-pyrrol-1-yl)benzonitrile]", "values": [{"measurement": "IC50", "result": "50 to 500", "unit": "nM"}]}
{"compound": "Cc1cc(C(=O)CN2C3CC4CC2CC(C3)O4)c(C)n1-c1ccc(C#N)cc1", "note": "[Example 84B, 4-(3-(2-((1r,3r)-2-Oxa-6-azaadamantan-6-yl)acetyl)-2,5-dimethyl-1H-pyrrol-1-yl)benzonitrile]", "values": [{"measurement": "IC50", "result": "50 to 500", "unit": "nM"}]}
{"compound": "Cc1c(C(=O)CN2C3CCC2CC3)cc(CCCCS(C)(=O)=O)n1-c1ccc(Cl)cc1", "note": "[Example 18B, 2-(7-Azabicyclo[2.2.1]heptan-7-yl)-1-(1-(4-chlorophenyl)-2-methyl-5-(4-(methylsulfonyl)butyl)-1H-pyrrol-3-yl)ethan-1-one]", "values": [{"measurement": "IC50", "result": "50 to 500", "unit": "nM"}]}
{"compound": "Cc1cc(C(=O)CN2[C@@H]3CC[C@@H]2CC(O)(C(F)(F)F)C3)c(C)n1-c1ccc(C#N)cc1", "note": "(stereo partly drawn) [Example 75B, 4-(3-(2-((1R,3s,5S)-3-Hydroxy-3-(trifluoromethyl)-8-azabicyclo[3.2.1]octan-8-yl)acetyl)-2,5-dimethyl-1H-pyrrol-1-yl)benzonitrile]", "values": [{"measurement": "IC50", "result": "50 to 500", "unit": "nM"}]}
{"compound": "Cc1c(C(=O)CN2C3CCC2CC3)c(C)n(-c2ccc(C#N)cc2)c1CCCCS(C)(=O)=O", "note": "[Example 1B, 4-(3-(2-(7-Azabicyclo[2.2.1]heptan-7-yl)acetyl)-2,4-dimethyl-5-(4-(methylsulfonyl)butyl)-1H-pyrrol-1-yl)benzonitrile]", "values": [{"measurement": "IC50", "result": "> 500", "unit": "nM"}]}
{"compound": "Cc1c(C(=O)CN2[C@@H]3CC[C@@H]2[C@@H](O)C3)cc(/C=C/CN)n1-c1ccc(C#N)cc1", "note": "(racemic) [Example 156B, (±)-4-(5-((E)-3-Aminoprop-1-en-1-yl)-3-(2-((1S,2R,4S)-2-hydroxy-7-azabicyclo[2.2.1]heptan-7-yl)acetyl)-2-methyl-1H-pyrrol-1-yl)benzonitrile]", "values": [{"measurement": "IC50", "result": "< 50", "unit": "nM"}]}
{"compound": "Cc1cc(C(=O)CN2[C@@H]3CC[C@H]2[C@@H](C(F)(F)F)C3)c(C)n1-c1ccc(C#N)cc1", "note": "(racemic) [Example 102B, (±)-4-(2,5-Dimethyl-3-(2-((1R,2R,4S)-2-(trifluoromethyl)-7-azabicyclo[2.2.1]heptan-7-yl)acetyl)-1H-pyrrol-1-yl)benzonitrile]", "values": [{"measurement": "IC50", "result": "> 500", "unit": "nM"}]}
{"compound": "Cc1c(C(=O)CN2C3CCC2[C@@H](O)C3)cc(CC2COC2)n1-c1ccc(C#N)cc1", "note": "(mixture of isomers) [Example 39B, (±)-4-(3-(2-((2R)-2-Hydroxy-7-azabicyclo[2.2.1]heptan-7-yl)acetyl)-2-methyl-5-(oxetan-3-ylmethyl)-1H-pyrrol-1-yl)benzonitrile]", "values": [{"measurement": "IC50", "result": "< 50", "unit": "nM"}]}
{"compound": "Cc1c(C(=O)CN2C3CCC2[C@@H](O)C3)cc(CCCOC(F)(F)F)n1-c1ccc(C#N)cc1", "note": "(mixture of isomers) [Example 155B, (±)-4-(3-(2-((1R,2R,4R)-2-Hydroxy-7-azabicyclo[2.2.1]heptan-7-yl(acetyl)-2-methyl-5-(3-(trifluoromethoxy)propyl)-1H-pyrrol-1-yl)benzonitrile]", "values": [{"measurement": "IC50", "result": "50 to 500", "unit": "nM"}]}
{"compound": "Cc1c(C(=O)CN2[C@@H]3CC[C@H]2[C@@H](C)C3)cc(C#N)n1-c1ccc(C#N)cc1", "note": "(racemic) [Example 136B, (±)-1-(4-Cyanophenyl)-5-methyl-4-(2-((1R,2R,4S)-2-methyl-7-azabicyclo[2.2.1]heptan-7-yl)acetyl)-1H-pyrrole-2-carbonitrile]", "values": [{"measurement": "IC50", "result": "< 50", "unit": "nM"}]}
{"compound": "Cc1c(C(=O)CN2C3CCC2CC3)cc(CCCCS(C)(=O)=O)n1-c1ccc(C#N)cc1", "note": "[Example 30B, 4-(3-(2-(7-Azabicyclo[2.2.1]heptan-7-yl)acetyl)-2-methyl-5-(4-(methylsulfonyl)butyl)-1H-pyrrol-1-yl)benzonitrile]", "values": [{"measurement": "IC50", "result": "< 50", "unit": "nM"}]}
